Here are results for 14 molecules from patent publication US20180318311A1, “TRICYCLIC 2-QUINOLINONES AS ANTIBACTERIALS” (priority 2017, published 2018).

Common to all, as to format: cell-based
Assay [1] has as its system S. aureus NB01006-AVR005, gyrA (S84L), grlA (580F) and grlB (E471K). The experiment in a line: microbe, parasite or virus in culture. The conditions noted are these: Staphylococcus aureus, 20 h, read-out: Antibacterial activity (MIC) NB01006-AVR005. On the procedure:
(§1) Bacterial isolates were cultivated from −80° C. frozen stocks by overnight passages at 35° C. in ambient air on Mueller-Hinton agar plates (MHA, Becton Dickinson, Franklin Lakes, NB) with the exception of S. pneumoniae which was grown overnight at 35° C. in the presence of 5% CO2 on blood agar plates (tryptic soy agar with 5% sheep blood (Thermo Scientific, Waltham, Mass.) . The following quality control and wild type strains were obtained from the American Type Culture Collection (ATCC; Rockville, Md.) and are coded in the Novartis strain collection as indicated: E. coli ATCC 25922 (NB27001), E. faecalis ATCC 29212 (NB04001), S. aureus ATCC 49951 (NB01006) and S. pneumoniae ATCC […] (NB07001). […] P. aeruginosa NB52019, obtained from Queen's University (Kingston, Ontario, Canada), is the wild-type PAO1 strain.
(§2) Minimal Inhibitory Concentrations (MIC) were determined by the broth microdilution method in accordance with Clinical and Laboratories Institute (CLSI) guidelines. In brief, fresh bacterial overnight cultures were re-suspended in sterile saline, adjusted to a 0.5 McFarland turbidity standard and then diluted to yield a final inoculum of approximately 5×10^5 colony-forming units (CFU)/mL. All bacterial suspensions were prepared in cation adjusted Mueller-Hinton Broth (CAMHB; Becton Dickinson, Franklin Lakes, N.J.;) with the exception of S. pneumoniae which was prepared in CAMHB supplemented with 5% lysed horse blood (Hardy Diagnostics, Santa Maria, Calif.). Two-fold serial dilutions of compounds were prepared in 100% dimethyl sulfoxide (DMSO) at 100-fold the highest final assay concentration; the resulting dilution series of compounds were diluted 1:10 with sterile water. Ten μL of the drug dilution series in 10% DMSO was transferred to microtiter wells and 90 μL of bacterial suspension was inoculated into the wells. All inoculated microdilution trays were incubated in ambient air at 35° C. for 20 hours. Following incubation, assay plates were read in a microtiter plate reader at 600 nm and visually inspected to confirm the MIC endpoint well with the OD value. The lowest concentration of the compound that prevented visible growth was recorded as the MIC (in μg/mL).

The subject of assay [2] is E. faecalis ATCC 29212 (NB04001). The experiment in a line: MIC by broth microdilution, E. faecalis NB04001. The conditions noted are these: Enterococcus faecalis, ATCC29212, CAMHB, 35° C., 20 hours, read-out: Antibacterial activity (MIC) NB04001. The procedure:
as §1, §2
For orientation: Dilution methods test growth across graded concentrations, often in twofold steps.

In assay [3] the test system is S. aureus NB01080 fluoroquinolone-resistant clinical isolate. The experiment in a line: MIC by broth microdilution, S. aureus NB01080. The conditions noted are these: Staphylococcus aureus, CAMHB, 35° C., 20 hours, read-out: Antibacterial activity (MIC) NB01080. The procedure: as §1, §2
The subject of assay [4] is E. coli ATCC 25922 (NB27001). The experiment in a line: MIC by broth microdilution, E. coli NB27001. The conditions noted are these: Escherichia coli, ATCC25922, CAMHB, 35° C., 20 hours, read-out: Antibacterial activity (MIC) NB27001. On the procedure:
as §1, §2

In assay [5] the test system is S. aureus ATCC 49951 (NB01006). The experiment in a line: MIC by broth microdilution, S. aureus NB01006. The conditions noted are these: Staphylococcus aureus, ATCC49951, CAMHB, 35° C., 20 hours, read-out: Antibacterial activity (MIC) NB01006. The procedure: as §1, §2
Assay [6] concerns P. aeruginosa NB52019, wild-type PAO1 strain. The experiment in a line: MIC by broth microdilution, P. aeruginosa NB52019. The conditions noted are these: Pseudomonas aeruginosa, CAMHB, 35° C., 20 hours, read-out: Antibacterial activity (MIC) NB52019. On the procedure:
as §1, §2

Assay [7] concerns S. pneumoniae ATCC 25922 (NB07001). The experiment in a line: MIC by broth microdilution, S. pneumoniae NB07001. The conditions noted are these: Streptococcus pneumoniae, read-out: Antibacterial activity (MIC) NB07001. The procedure: as §1, §2
[8] abbreviates: ATCC25922, S. pneumoniae, CAMHB supplemented with 5% lysed horse blood, 35° C., 20 hours.

Values after ≈ are worked out from the molar mass of the structure shown. Read-outs that look alike come from different tables or passages of the source.

As to `C[C@H]1COc2c(N3CCC(CNC4CC4)C3)c(F)cc3cc(C(=O)O)c(=O)n1c23` (mixture of isomers) [Example 1.11, (3S)-10-(3-((cyclopropylamino)methyl)pyrrolidin-1-yl)-9-fluoro-3-methyl-5-oxo-2,3-dihydro-5H-[1,4]oxazino[2,3,4-ij]quinoline-6-carboxylic acid], the MIC in assay [1] is > 32 µg/mL; in assay [2], 1 to 32 µg/mL; in assay [3] it was 1 to 32 µg/mL; in assay [4], 1 to 32 µg/mL; in assay [5] it was 1 to 32 µg/mL; in assay [6], > 32 µg/mL. In addition, in assay [7] (ATCC25922, 20 h), the MIC is < 1 µg/mL.

Take `C[C@H]1COc2c(N3CC4C(N)C4C3)c(F)cc3cc(C(=O)O)c(=O)n1c23` (mixture of isomers) [Example 1.38, (3S)-10-(6-amino-3-azabicyclo[3.1.0]hexan-3-yl)-9-fluoro-3-methyl-5-oxo-2,3-dihydro-5H-[1,4]oxazino[2,3,4-ij]quinoline-6-carboxylic acid]: the MIC in assay [1] is > 32 µg/mL; in assay [2], 1 to 32 µg/mL; in assay [3], 1 to 32 µg/mL; in assay [4], < 1 µg/mL; in assay [5] it was < 1 µg/mL; in assay [6] it was 1 to 32 µg/mL. Besides, the MIC in assay [7] (ATCC25922, 20 h) was in the range of 1 to 32 µg/mL.

As for `C[C@H]1COc2c(N3CCC(C4CC4N)CC3)c(F)cc3cc(C(=O)O)c(=O)n1c23` (mixture of isomers) [Example 1.64, (3S)-10-(4-(2-aminocyclopropyl)piperidin-1-yl)-9-fluoro-3-methyl-5-oxo-2,3-dihydro-5H-[1,4]oxazino[2,3,4-ij]quinoline-6-carboxylic acid], the MIC in assay [1] was > 32 µg/mL; in assay [2] it was 1 to 32 µg/mL; in assay [3], > 32 µg/mL; in assay [4] it was > 32 µg/mL; in assay [5], 1 to 32 µg/mL; in assay [6], > 32 µg/mL. Also, the MIC in assay [7] (ATCC25922, 20 h) was 1 to 32 µg/mL.

Consider `C[C@H]1COc2c(N3CCC4NCCCC4C3)c(F)cc3cc(C(=O)O)c(=O)n1c23` (mixture of isomers) [Example 1.65, (3S)-9-fluoro-3-methyl-10-(octahydro-1,6-naphthyridin-6(2H)-yl)-5-oxo-2,3-dihydro-5H-[1,4]oxazino[2,3,4-ij]quinoline-6-carboxylic acid], for which the MIC in assay [1] was > 32 µg/mL; in assay [2], > 32 µg/mL; in assay [3] it was > 32 µg/mL; in assay [4], 1 to 32 µg/mL; in assay [5] it was 1 to 32 µg/mL; in assay [6], > 32 µg/mL. The MIC in assay [7] (ATCC25922, 20 h) was in the range of 1 to 32 µg/mL.

Regarding `O=C(O)c1cn(C2CC2)c2cc(N3CCNCC3)c(F)cc2c1=O` [CIP, Ciprofloxacin, reference compound], the MIC was < 1 µg/mL in assay [2]; < 1 µg/mL in assay [4]; < 1 µg/mL in assay [5]; < 1 µg/mL in assay [6]; < 1 µg/mL in assay [7] (ATCC25922, 20 h).

With `COC(=O)c1cc2cc(F)c(N3CC[C@@H](C4(N)CC4)C3)c3c2n(c1=O)[C@@H](C)CO3` [Example 1.7, Methyl (S)-10-((R)-3-(1-aminocyclopropyl)pyrrolidin-1-yl)-9-fluoro-3-methyl-5-oxo-2,3-dihydro-5H-[1,4]oxazino[2,3,4-ij]quinoline-6-carboxylate], the MIC was 1 to 32 µg/mL (≈ 2.49 to 79.7 µM) in assay [1]; < 1 µg/mL in assay [2]; < 1 µg/mL in assay [3]; > 32 µg/mL in assay [4]; < 1 µg/mL in assay [5]; < 1 µg/mL in assay [7] (ATCC25922, 20 h).

Consider `C[C@H]1COc2c(N3CCC(F)(CN)C3)c(F)cc3c(CN)cc(=O)n1c23.O=C(O)C(F)(F)F` (stereo partly drawn) [Example 7.1, (3S)-7-(aminomethyl)-10-(3-(aminomethyl)-3-fluoropyrrolidin-1-yl)-9-fluoro-3-methyl-2,3-dihydro-5H-[1,4]oxazino[2,3,4-ij]quinolin-5-one trifluoroacetate salt], for which the MIC in assay [1] was 1 to 32 µg/mL; in assay [3] it was 1 to 32 µg/mL; in assay [4], 1 to 32 µg/mL; in assay [6] it was 1 to 32 µg/mL; in assay [7] (setting [8]) it was < 1 µg/mL.

Turning to `C[C@H]1COc2c(N3CC[C@H](N)C3)c(F)cc3c(CN)cc(=O)n1c23` [Example 7.2, (S)-7-(aminomethyl)-10-((S)-3-aminopyrrolidin-1-yl)-9-fluoro-3-methyl-2,3-dihydro-5H-[1,4]oxazino[2,3,4-ij]quinolin-5-one], the MIC in assay [1] was 1 to 32 µg/mL (≈ 3.01 to 96.3 µM); in assay [3], > 32 µg/mL; in assay [4] it was 1 to 32 µg/mL (≈ 3.01 to 96.3 µM); in assay [6], 1 to 32 µg/mL (≈ 3.01 to 96.3 µM); in assay [7] (ATCC25922, 20 h), 1 to 32 µg/mL (≈ 3.01 to 96.3 µM).

As for `C[C@@H]1COc2c(N3CCC(F)(CN)C3)c(F)cc3c(CN)cc(=O)n1c23` (stereo partly drawn) [Example 7.3, (3R)-7-(aminomethyl)-10-(3-(aminomethyl)-3-fluoropyrrolidin-1-yl)-9-fluoro-3-methyl-2,3-dihydro-5H-[1,4]oxazino[2,3,4-ij]quinolin-5-one], the MIC is > 32 µg/mL in assay [1]; > 32 µg/mL in assay [3]; > 32 µg/mL in assay [4]; > 32 µg/mL in assay [6]; > 32 µg/mL in assay [7] (ATCC25922, 20 h).

For `C[C@@H]1COc2c(N3CCNCC3)c(F)cc3c(CN)cc(=O)n1c23` [Example 7.4, (R)-7-(aminomethyl)-9-fluoro-3-methyl-10-(piperazin-1-yl)-2,3-dihydro-5H-[1,4]oxazino[2,3,4-ij]quinolin-5-one], the MIC in assay [1], in assay [3], in assay [4], in assay [6] and in assay [7] (setting [8]) was > 32 µg/mL in each case.

On to `NCc1cc(=O)n2c3c(c(N4CCC(F)(CN)C4)c(F)cc13)OCC2` (stereo not shown) [Example 7.5, 7-(aminomethyl)-10-(3-(aminomethyl)-3-fluoropyrrolidin-1-yl)-9-fluoro-2,3-dihydro-5H-[1,4]oxazino[2,3,4-ij]quinolin-5-one], for which the MIC in assay [1] is > 32 µg/mL; in assay [3], > 32 µg/mL; in assay [4], > 32 µg/mL; in assay [6] it was > 32 µg/mL; in assay [7] (ATCC25922, 20 h), > 32 µg/mL.

For `N#Cc1cc(=O)n2c3c(c(N4CCC(F)(CN)C4)c(F)cc13)OCC2` (stereo not shown) [Example 7.6, 10-(3-(aminomethyl)-3-fluoropyrrolidin-1-yl)-9-fluoro-5-oxo-2,3-dihydro-5H-[1,4]oxazino[2,3,4-ij]quinoline-7-carbonitrile], the MIC is > 32 µg/mL in assay [1]; 1 to 32 µg/mL (≈ 2.89 to 92.4 µM) in assay [3]; > 32 µg/mL in assay [4]; > 32 µg/mL in assay [6]; > 32 µg/mL in assay [7] (ATCC25922, 20 h).

On to `NCc1cc(=O)n2c3c(c(N4CCNCC4)c(F)cc13)OCC2` [Example 7.7, 7-(aminomethyl)-9-fluoro-10-(piperazin-1-yl)-2,3-dihydro-5H-[1,4]oxazino[2,3,4-ij]quinolin-5-one], for which the MIC in assay [1], in assay [3], in assay [4], in assay [6] and in assay [7] (setting [8]) was > 32 µg/mL throughout.

In the case of `N#Cc1cc(=O)n2c3c(c(N4CCNCC4)c(F)cc13)OCC2` [Example 7.8, 9-fluoro-5-oxo-10-(piperazin-1-yl)-2,3-dihydro-5H-[1,4]oxazino[2,3,4-ij]quinoline-7-carbonitrile], the MIC in assay [1], in assay [3], in assay [4], in assay [6] and in assay [7] (setting [8]) was > 32 µg/mL throughout.
